Common to all, as to test: ≥ marks a high value that may be exact or a test limit, other limits are often not marked, values filed in µg/mL are converted to µM
Assay [1] has as its system Staphylococcus aureus ATCC 6538.
Assay [2] relates to Staphylococcus epidermidis AB208188.
Assay [3] concerns Staphylococcus aureus P1389.
Assay [4] deals with Micrococcus luteus AB93113.
The subject of assay [5] is Staphylococcus aureus P1381.
The subject of assay [6] is Staphylococcus aureus AB208193.
Assay [7] has as its system Bacillus subtilis AB91021.
Assay [8] has as its system Staphylococcus aureus P1374.
The subject of assay [9] is Bacillus thuringiensis AB92037.
The subject of assay [10] is Escherichia coli ATCC 25922.
Assay [11] deals with Pseudomonas aeruginosa ATCC 9027.
In assay [12] the test system is Escherichia coli AB94012.
Assay [13] relates to Staphylococcus epidermidis AB208187.
Assay [14] has as its system Staphylococcus aureus ATCC 25923.
For assay [15], the system named is Staphylococcus aureus ATCC 43300.
Assay [16] concerns Salmonella enterica subsp. enterica serovar Typhimurium ATCC 14028.
The test system of assay [17] is Listeria monocytogenes ATCC BAA-751.
Assay [18] relates to Bacillus cereus ATCC 11778.
The test system of assay [19] is Staphylococcus aureus ATCC 29213.
Assay [20] relates to Escherichia coli ATCC 11775.
Assay [21] deals with Staphylococcus epidermidis MTCC 435.
In assay [22] the test system is Staphylococcus aureus ATCC 33592.
For assay [23], the system named is Pseudomonas aeruginosa ATCC 27853.
In assay [24] the test system is Staphylococcus saprophyticus MTCC 6155.
For assay [25], the system named is Micrococcus luteus MTCC 166.
The test system of assay [26] is Klebsiella pneumoniae ATCC 700603.
For assay [27], the system named is Klebsiella pneumoniae ATCC 13883.
Assay [28] has as its system Salmonella enterica subsp. enterica serovar Abony NCTC 6017.
Assay [29] concerns Escherichia coli ML-35p.
Assay [30] has as its system Escherichia coli ATCC 35218.
Assay [31] relates to Salmonella enterica subsp. enterica serovar Typhi Vi+.
The subject of assay [32] is Bacillus subtilis MTCC 121.
Assay [33] relates to Escherichia coli DH5alpha.
Assay [34] has as its system Staphylococcus aureus NBRC 13276.
Assay [35] concerns Pseudomonas aeruginosa NBRC 13275.
Assay [36] has as its system Escherichia coli O157:H7.
Assay [37] concerns Escherichia coli NCIMB 11843.
Assay [38] concerns Cronobacter sakazakii ATCC BAA-894.
Assay [39] deals with Salmonella enterica subsp. enterica serovar Typhimurium LT2.
For assay [40], the system named is Staphylococcus aureus NCTC 7428.
The test system of assay [41] is Cronobacter muytjensii ATCC 51329.
Assay [42] deals with Pseudomonas fluorescens NCIMB 9046.
The test system of assay [43] is Staphylococcus aureus NCTC 8325-4.
The subject of assay [44] is Klebsiella pneumoniae NCIMB 13218.
In assay [45] the test system is Cronobacter sakazakii DSM 4485.
Assay [46] concerns Escherichia coli O111.
The test system of assay [47] is Staphylococcus aureus RF122.
In assay [48] the test system is Staphylococcus aureus SA113.
Assay [49] has as its system Cronobacter sakazakii DPC 6440.
The test system of assay [50] is Staphylococcus aureus RN4220.
For assay [51], the system named is Salmonella enterica subsp. enterica serovar Typhimurium DT104.
Assay [52] deals with Staphylococcus aureus Newman.

Converted amounts (≈) assume the structure as drawn.

The term MIC denotes the smallest concentration in the dilution series that meets the test's criterion for growth inhibition. The low end stands for inhibition by little substance, the high end for a need for much substance.

As for `CC[C@H](C)[C@H](NC(=O)[C@H](CCCCN)NC(=O)[C@@H](NC(=O)[C@H](C)NC(=O)[C@H](CC(C)C)NC(=O)[C@H](CCCCN)NC(=O)[C@H](Cc1ccccc1)NC(=O)[C@H](CC(C)C)NC(=O)[C@H](C)NC(=O)CNC(=O)[C@H](Cc1ccccc1)NC(=O)[C@@H](N)Cc1ccccc1)[C@@H](C)O)C(=O)N[C@H](C(=O)N1CCC[C@H]1C(=O)N[C@@H](CO)C(=O)N[C@@H](CC(C)C)C(=O)N[C@@H](Cc1ccccc1)C(=O)N[C@@H](CCCN=C(N)N)C(=O)O)[C@@H](C)CC` [FFGALFKLATKIIPSLFR], the MIC in assay [1] is 1.5 µM (≈ 3.1 µg/mL); in assay [2], 1.5 µM (≈ 3.1 µg/mL); in [3] it was 1.5 µM (≈ 3.1 µg/mL); in [4], not below 48.3 µM; in assay [5] it was 3 µM (≈ 6.21 µg/mL); in assay [6] it was 3 µM (≈ 6.21 µg/mL). The MIC in assay [7] is 3 µM (≈ 6.21 µg/mL); in [8], 3 µM (≈ 6.21 µg/mL); in [9] it was 1.5 µM (≈ 3.1 µg/mL); in assay [10], 12.1 µM (≈ 25 µg/mL); in assay [11] it was 12.1 µM (≈ 25 µg/mL); in [12], not below 48.3 µM. Besides, the MIC stood at 1.5 µM (≈ 3.1 µg/mL) in assay [13] and 3 µM (≈ 6.21 µg/mL) in assay [14].

In the case of `CC[C@H](C)[C@H](NC(=O)CNC(=O)[C@H](CCCCN)NC(=O)[C@@H](NC(=O)[C@H](CC(C)C)NC(=O)[C@H](CCCCN)NC(=O)CNC(=O)[C@H](CC(C)C)NC(=O)CNC(=O)[C@H](CO)NC(=O)[C@H](CCCCN)NC(=O)[C@H](Cc1ccccc1)NC(=O)[C@@H](NC(=O)[C@H](CCCN=C(N)N)NC(=O)[C@H](CCCCN)NC(=O)[C@H](CC(C)C)NC(=O)CN)[C@@H](C)CC)C(C)C)C(=O)N[C@@H](CO)C(=O)N[C@@H](C)C(=O)N[C@@H](Cc1cnc[nH]1)C(=O)N[C@H](C(=O)N[C@@H](C)C(=O)N[C@@H](CO)C(=O)O)C(C)C` [GLKRIFKSGLGKLVKGISAHVAS], the MIC was 250 µM (≈ 592 µg/mL) in assay [15]; 125 µM (≈ 296 µg/mL) in assay [16]; not below 62.5 µM in assay [17]; 62.5 µM (≈ 148 µg/mL) in assay [10]; 250 µM (≈ 592 µg/mL) in assay [11]; not below 125 µM in [18]. For the same molecule, the MIC in [19] came out at 250 µM (≈ 592 µg/mL); in assay [14], 62.5 µM (≈ 148 µg/mL).

With `CC[C@H](C)[C@H](N)C(=O)N[C@@H](CC(C)C)C(=O)N1CCC[C@H]1C(=O)N[C@@H](Cc1c[nH]c2ccccc12)C(=O)N[C@@H](CCCCN)C(=O)N[C@@H](Cc1c[nH]c2ccccc12)C(=O)N[C@@H](CCCCN)C(=O)N[C@@H](Cc1c[nH]c2ccccc12)C(=O)N[C@H](C(=O)N1CCC[C@H]1C(=O)N[C@@H](Cc1c[nH]c2ccccc12)C(=O)N[C@@H](CCCN=C(N)N)C(=O)N[C@@H](CCCN=C(N)N)C(N)=O)[C@@H](C)O` [ILPWKWKWTPWRR], the MIC in [20] came to 4 µM (≈ 7.41 µg/mL); in assay [16] it was 7 µM (≈ 13 µg/mL); in [21], 4 µM (≈ 7.41 µg/mL); in [22] it was 3 µM (≈ 5.56 µg/mL); in [23], 4 µM (≈ 7.41 µg/mL); in assay [24] it was 3 µM (≈ 5.56 µg/mL). The MIC in assay [25] is 2.5 µM (≈ 4.63 µg/mL); in [26] it was 5 µM (≈ 9.26 µg/mL); in assay [27] it was 3 µM (≈ 5.56 µg/mL); in assay [28] it was 7 µM (≈ 13 µg/mL); in [29], 4 µM (≈ 7.41 µg/mL); in assay [30], 5 µM (≈ 9.26 µg/mL). Further, the MIC came to 2 µM (≈ 3.7 µg/mL) in assay [31] and 3 µM (≈ 5.56 µg/mL) in [32].

As for `CC(=O)N[C@@H](CCCCN)C(=O)N[C@@H](Cc1ccccc1)C(=O)N[C@@H](CC(C)C)C(=O)N[C@@H](Cc1cnc[nH]1)C(=O)N[C@@H](CO)C(=O)N[C@@H](C)C(=O)N[C@@H](CCCCN)C(=O)N[C@@H](CCCCN)C(=O)N[C@@H](Cc1ccccc1)C(N)=O` [KFLHSAKKF], the MIC in assay [33] was not below 200 µM; in [34], not below 400 µM; in [35], not below 200 µM.

Consider `CC(C)C[C@H](NC(=O)[C@H](CC(C)C)NC(=O)[C@H](CC(N)=O)NC(=O)[C@H](CCC(=O)O)NC(=O)[C@H](CC(N)=O)NC(=O)[C@H](CC(C)C)NC(=O)[C@@H](N)C(C)C)C(=O)N[C@@H](CCCN=C(N)N)C(=O)O` [VLNENLLR], for which the MIC in assay [36] is not below 2060 µM; in assay [37], not below 1250 µM; in assay [38] it was not below 625 µM; in assay [39] it was not below 1250 µM; in assay [40] it was not below 2060 µM; in assay [23], 64 µM (≈ 62.1 µg/mL). For the same molecule, the MIC in [41] is not below 625 µM; in [42], not below 1250 µM; in assay [43], not below 1250 µM; in assay [44] it was not below 1250 µM; in assay [45], not below 625 µM; in assay [46], not below 2060 µM. Besides, the MIC in assay [47] was not below 1250 µM; in assay [48], not below 1250 µM; in assay [49], not below 1250 µM; in assay [50], not below 1250 µM; in [51], not below 2060 µM; in [52], not below 1250 µM.

The record behind these values is DBAASP.
